Laboratory results published in patent US20030004162A1, “Use of glycogen phosphorylase inhibitors” (priority 2000, published 2003).

With `CCN1C(=O)C(C(=O)Nc2cccc(C(=O)Nc3ccccc3)c2)c2cc(C(C)=O)ccc21` (stereo not drawn) [Example 1, 5-Acetyl-1-ethyl-2-oxo-2,3-dihydro-1H-indole-3-carboxylic acid (3-phenylcarbamoyl-phenyl)-amide] the melting point was 173 to 175 °C.
In the case of `CCN1C(=O)C(C(=O)Nc2cccc(C(=O)Nc3ccc(I)cc3)c2)c2cc(C(C)=O)ccc21` (stereo not drawn) [Example 9, 5-Acetyl-1-ethyl-2-oxo-2,3-dihydro-1H-indole-3-carboxylic acid [3-(4-iodo-phenylcarbamoyl)-phenyl]-amide], the melting point was 205 to 210 °C.
Work on `CC(=O)c1ccc2c(c1)C(C(=O)Nc1cccc(C(=O)Nc3ccccc3)c1)C(=O)N2C` (stereo not drawn) [Example 12, 5-Acetyl-1-methyl-2-oxo-2,3-dihydro-1H-indole-3-carboxylic acid (3-phenylcarbamoyl-phenyl)-amide] yielded a melting point of 178 to 179 °C.
For `CCC(=O)c1ccc2c(c1)C(C(=O)Nc1cccc(C(=O)Nc3ccccc3)c1)C(=O)N2CC` (stereo not drawn) [Example 14, 1-Ethyl-2-oxo-5-propionyl-2,3-dihydro-1H-indole-3-carboxylic acid (3-phenylcarbamoyl-phenyl)-amide], the melting point was 179 to 180 °C.
Work on `CC(=O)c1ccc2c(c1)C(C(=O)Nc1cccc(C(=O)Nc3ccccc3)c1)C(=O)N2CC(F)(F)F` (stereo not drawn) [Example 16, 5-Acetyl-2-oxo-1-(2,2,2-trifluoro-ethyl)-2,3-dihydro-1H-indole-3-carboxylic acid (3-phenylcarbamoyl-phenyl)-amide] yielded a melting point of 197 to 203 °C.
For `O=C(N[C@@H](Cc1ccccc1)C(=O)N1CCOCC1)c1cc2cc(Cl)sc2[nH]1` [Example 19, 2-Chloro-6H-thieno[2,3-b]pyrrole-5-carboxylic acid [(1S)-benzyl-2-morpholin-4-yl-2-oxo-ethyl]-amide], the melting point was 108 to 110 °C.
